# Results as given in patent US20090105149A1, “Compounds comprising lpa” (ENKAM PHARMACEUTICALS A/S, priority 2003, published 2009).
# How the values were obtained:
# dopaminergic neurons = experiment: Neurite outgrowth, dopaminergic neurons; format: cell-based, rat; conditions: 72 h; for Effect on Neurite Length (Percent Increase vs. Control): DN E14
# Method: The cultures were subsequently immunostained for tyrosine hydroxylase. Hippocampal neurons and CGN were plated at a density of 10,000 cells/cm^2 on 8-well permanox chamber slides and incubated for 24 hours in the presence of various concentrations of FGLd. Subsequently the neurons were immunostained for GAP-43. Results from at least five independent experiments for each neuronal culture are shown as percentage ±SEM with the untreated controls set at 100%. *p<0.05, **p<0.01, ***p<0.001 when compared to the controls.
# After 72 hours of incubation, the neurons were fixed with 4% (v/v) formaldehyde and immunostained using a primary mouse monoclonal antibody against tyrosine hydroxylase and secondary biotinylated sheep anti-mouse antibodies followed by incubation with peroxidase conjugated streptavidin. 98 images for each experimental condition in each individual experiment were automatically recorded using a computerised microscope workstation described by Walmod et al. (2002) Toxicol Appl Pharmacol. 181:1-15. Briefly, the workstation consisted of an Eclipse TE 300 inverted microscope (Nikon, Tokyo, Japan) equipped with a motorised, movable microscope stage (LUDL Electronic Production Ltd, Hawthorne, N.Y., USA), a 10× objective and a 1100 analogue b/w CCD video camera (DFA, Denmark). A software package Prima developed at the Protein Laboratory (Copenhagen University, Denmark) was used to make a stereologically based determination of neurite length according to Rønn et al., (2000) J Neurosci Methods. 100:25-32).
# hippocampal neurons = experiment: Synapse formation, synaptophysin/GAP-43 double-immunostaining; format: cell-based, rat
# Method: The effect of FGLd on synapse formation was further evaluated using double-immunostaining of neurites and synapses in primary embryonic (E19) hippocampal neurons grown in culture for 13 days. Cells were incubated with FGLd for 48 or 96 hours, before fixation and immunostaining. The synapses were detected by antibodies against synaptophysin and the neyrites were labelled by antibodies against the growth-associated protein-43 (GAP-43—also called B-50 or F1). The immunostaining was visualised and quantified by confocal fluorescence microscopy as described by Rønn et al. (2000) (op. cit.).
# [1] = test system: dissociated hippocampal neurons; experiment: OGD, metabolic activity (MTS) in dissociated hippocampal cell cultures; format: cell-based, rat
# From the text: (§1) In the present study it was investigated the effect of the FGL peptide on synaptic plasticity, neuronal function and vulnerability following oxygen and glucose deprivation (OGD) in organotypic hippocampal neuronal slice cultures (OHSC) from 7-day-old Wistar rats according to method of Stoppini et al. (1991) Neurosci Methods. 37:173-82 and primary cultures of dissociated hippocampal neurons from 1-day-old rats according to method of Maar et al. (1997) J Neurosci Res. 47:163-72. Primary cell cultures were maintained for 11-12 days and OHSC for 12-14 days prior to adding FGLd.
# (§2) The primary cell cultures and OHSC were exposed to OGD for 10 and 20 minutes. Following OGD, the cultures were again supplied with oxygen and glucose and analysed at 1, 4 or 24 hour time point after introduction of OGD exposure. FGLd (or the control peptide FGLc) was added 24 hr before, immediately, or 1 hr or 24 hr after OGD. When administered prior to OGD, FGLd was removed from the medium when introducing OGD. In some cases, the slice cultures were treated with FGLd only at 4 hr after OGD. In addition, the FGFR inhibitor, SU5402 (25 μM), was added together with FGLd in some of the set-ups.
# (§3) In hippocampal neuronal cultures, FM 1-43 staining was used to evaluate pre-synaptic function (described above). Cell viability in both primary cell cultures and OHSC was measured using the […] [3-(4,5-dimethylthiazol-2-yl)-2,5-diphenyltetrazolium bromide] assay according to Malich et al, (1997) Toxicology. 124:179-92. In, addition, cell viability in OHSC was measured using propidium iodide (PI) staining according to Laake et al. (1999) Brain Res Brain Res Protoc. 4:173-84.
# [2] = test system: organotypic hippocampal neuronal slice cultures (OHSC); experiment: OGD, metabolic activity (MTS) in organotypic hippocampal slice cultures; format: cell-based, rat
# From the text: as §1
# The primary cell cultures and OHSC were exposed to OGD for 10 and 20 minutes. Following OGD, the cultures were again supplied with oxygen and glucose and analysed at 1, 4 or 24 hour time point after introduction of OGD exposure. FGLd (or the control peptide FGLc) was added 24 hr before, immediately, or 1 hr or 24 hr after OGD. […]
# In hippocampal neuronal cultures, FM 1-43 staining was used to evaluate pre-synaptic function (described above). Cell viability in both primary cell cultures and OHSC was measured using the […] [3-(4,5-dimethylthiazol-2-yl)-2,5-diphenyltetrazolium bromide] assay according to Malich et al, (1997) Toxicology. […] In, addition, cell viability in OHSC was measured using propidium iodide (PI) staining according to Laake et al. (1999) Brain Res Brain Res Protoc. […]
# [3] = test system: dissociated hippocampal neurons; experiment: OGD, FM 1-43 release in dissociated hippocampal cell cultures; format: cell-based, rat
# From the text: as §1, §2, §3
# [4] = test system: rats treated with (25-35) β-amyloid fragment; experiment: Amyloid burden in brain sections, (25-35) β-amyloid fragment rat model; format: in vivo; conditions: Study 2; sub-occipital 5 μg, days 7, 10, 13; β-amyloid only = 100%
# Method: The number of animals in the groups varied from 3 to 13. Results were analysed using one-way ANOVA (F(2,18)=5.2, p=0.016), and significance of results was contingent on achieving a p-value of less than 0.05 (*p<0.05 and **p<0.01), when compared with the A-β/V group (Newman-Keuls posttest).
# The number of animals in the groups varied from 2 to 12. Results were analysed using one-way ANOVA (F(2,15)=9.54, p=0.002), and significance of results was contingent on achieving a p-value of less than 0.05 (***p<0.001), when compared with the A-β/V group (Newman-Keuls posttest).
# The number of animals per group varied from 3 to 13. The results were analysed using one-way ANOVA (F(2,12)=18.6, P=0.002) and significance of results was contingent on achieving a p-value of less than 0.05 (***p<0.001) when compared with the A-β/V group (Bonferroni's multiple comparison test).
# The number of animals per group varied from 3 to 5. The results were analysed using one-way ANOVA (F(2,9)=10.6, P=0.004) and significance of results was contingent on achieving a p-value of less than 0.05 (***p<0.001) when compared with the A-β/V group (Newman-Keuls post-test).
# Behaviour of animals was evaluated using the Social Recognition test, the Open Field test or the Light-dark Discriminating γ-maze. […] In addition, the number of neurons in selected areas of brain-sections was calculated using a stereological approach.
# [5] = treated 24 hours before or immediately after OGD
substance,measurement,setting,value
FGLd: MAP-type dendrimer of FGL; dendrimeric tetramer of the FGL peptide (EVYVVAENQQGKSKA),Effect on Neurite Length (Percent Increase vs. Control),dopaminergic neurons; 0.04 μg/mL,12%
same,Effect on Neurite Length (Percent Increase vs. Control),dopaminergic neurons; 0.2 μg/mL,23%
same,Effect on Neurite Length (Percent Increase vs. Control),dopaminergic neurons; 1 μg/mL,24%
same,Effect on Neurite Length (Percent Increase vs. Control),dopaminergic neurons; 5 μg/mL,13%
same,"maximal average neurite length, dopaminergic neurons","dopaminergic neurons; at 1 μg/ml, untreated control = 100%",125%
same,increase in the number of synaptophysin positive spots per 100 μm length of neurite,hippocampal neurons; 20 μg/ml for 48 and 96 hours,approximately 20%
same,number of synaptophysin positive spots per 100 μm length of neurite,"hippocampal neurons; 20 μg/ml for 48 hours, control 2.40",2.96
same,number of synaptophysin positive spots per 100 μm length of neurite,"hippocampal neurons; 20 μg/ml for 96 hours, control 2.73",3.24
same,"metabolic activity (MTS), treatment alone",[1]; no OGD,led to an increase in metabolic activity
same,metabolic activity (MTS) after 20 min OGD,[1]; [5],the effect of OGD on metabolic activity was diminished
same,"metabolic activity (MTS), treatment alone",[2]; no OGD,led to an increase in metabolic activity
same,metabolic activity (MTS) after OGD,"[2]; treated 24 hours prior to OGD, 1 h and 24 h after OGD",caused a normalization of the metabolic activity
same,rate of FM 1-43 release after OGD,[3]; [5],the OGD-induced decrease in the rate of FM 1-43 release was diminished
same,rate of pre-synaptic vesicle release (FM 1-43 destaining) upon high potassium stimulation,"[3]; treatment without OGD, control 0.04",0.06 s⁻¹
same,amyloid burden in the CA3 area of the hippocampus,[4],44%
same,amyloid burden in the cingulate cortex,[4],42%
